Measurements taken from patent US9155312B2, “Fungicidal combinations of active ingredients” (Bayer Intellectual Property GmbH, priority 2004, dated 2015).

tested on: Erysiphe graminis f.sp. tritici; test: Erysiphe test (wheat)/curative; assay type: in vivo; details: curative, sprayed 48 hours after inoculation, application rate 25 g/ha, evaluation 7 days after inoculation
Experimental: Erysiphe Test (Wheat)/Curative
To prepare a suitable preparation of active compound, a commercial formulation of active compound is diluted with water to the desired concentration.
To test for curative activity, young plants were dusted with spores of Erysiphe graminis f.sp. tritici. 48 hours after the inoculation, the plants were sprayed with the preparation of active compound at the stated application rates.
The plants were placed in a greenhouse at a temperature of about 20° C. and a relative atmospheric humidity of about 80% to promote the development of mildew pustules.
Evaluation was carried out 7 days after the inoculation. 0% means an efficacy which corresponds to that of the control, whereas an efficacy of 100% means that no infection is observed.

Row | SMILES | efficacy in % found
1 | CCOC(=O)C1=NN(c2ccc(Cl)cc2Cl)C(C)(C(=O)OCC)C1 (stereo not drawn) [Mefenpyr, diethyl 1-(2,4-dichlorophenyl)-4,5-dihydro-5-methyl-1H-pyrazole-3,5-dicarboxylate] | 0%

same assay, conditions: curative, sprayed 48 hours after inoculation, application rate 125 g/ha, evaluation 7 days after inoculation

Row | SMILES | efficacy in % found
2 | CC(C)(C)C(O)(CCc1ccc(Cl)cc1)Cn1cncn1 (stereo not drawn) [Tebuconazole, tebuconazole] | 57%
3 | CO/N=C(/C(=O)OC)c1ccccc1CO/N=C(\C)c1cccc(C(F)(F)F)c1 [Trifloxystrobin, trifloxystrobin] | 86%
4 | OC(Cc1ccccc1Cl)(Cn1nc[nH]c1=S)C1(Cl)CC1 (stereo not drawn) [Prothioconazole, prothioconazole] | 43%
5 | CCCN(CC)CC1COC2(CCC(C(C)(C)C)CC2)O1 (stereo not drawn) [Spiroxamin, spiroxamine] | 0%
6 | CO/N=C(/C1=NOCCO1)c1ccccc1Oc1ncnc(Oc2ccccc2Cl)c1F [Fluoxastrobin, fluoxastrobin] | 0%
